Reference: PubChem BioAssay AID1259407 (Chemical Carcinogenesis Research Information System (CCRIS), 2018)
Calls of active or inactive are those of the source. The rule behind the calls is not given here.

Test system: CCRIS mutagenicity, Ames/micronucleus/aberration tests
Assay: CCRIS mutagenicity studies

SMILES: Cc1ccccc1N
- mutagenic call (Test System: AMES SALMONELLA TYPHIMURIUM, Strain/Indicator: TA104, Metabolic Activation: HAMSTER, LIVER, S-9, SODIUM PHENOBARBITAL AND 5,6-BENZOFLAVONE, Method: PREINCUBATION): inactive; negative
- mutagenic call (Test System: AMES SALMONELLA TYPHIMURIUM, Strain/Indicator: TA104, Metabolic Activation: NONE, Method: PREINCUBATION): inactive; negative
- mutagenic call (Test System: AMES SALMONELLA TYPHIMURIUM, Strain/Indicator: TA1535, Metabolic Activation: HAMSTER LIVER S-9, AROCLOR 1254 (10%), Method: PREINCUBATION): inactive; negative
- mutagenic call (Test System: AMES SALMONELLA TYPHIMURIUM, Strain/Indicator: TA1535, Metabolic Activation: HAMSTER, LIVER, S-9, AROCLOR 1254 (10%), Method: PREINCUBATION): inactive; negative
- mutagenic call (Test System: AMES SALMONELLA TYPHIMURIUM, Strain/Indicator: TA1535, Metabolic Activation: HAMSTER, LIVER, S-9, SODIUM PHENOBARBITAL AND 5,6-BENZOFLAVONE, Method: PREINCUBATION): inactive; negative
- mutagenic call (Test System: AMES SALMONELLA TYPHIMURIUM, Strain/Indicator: TA1535, Metabolic Activation: NONE, Method: PREINCUBATION): inactive; negative
- mutagenic call (Test System: AMES SALMONELLA TYPHIMURIUM, Strain/Indicator: TA1535, Metabolic Activation: NONE, Method: STANDARD PLATE): inactive; negative
- mutagenic call (Test System: AMES SALMONELLA TYPHIMURIUM, Strain/Indicator: TA1535, Metabolic Activation: RAT LIVER S-9, AROCLOR 1254 (10 OR 30%), Method: PREINCUBATION): inactive; negative
- mutagenic call (Test System: AMES SALMONELLA TYPHIMURIUM, Strain/Indicator: TA1535, Metabolic Activation: RAT, LIVER, S-9, AROCLOR 1254 (10%), Method: PREINCUBATION): inactive; negative
- mutagenic call (Test System: AMES SALMONELLA TYPHIMURIUM, Strain/Indicator: TA1535, Metabolic Activation: RAT, LIVER, S-9, AROCLOR 1254, Method: STANDARD PLATE): inactive; negative
- mutagenic call (Test System: AMES SALMONELLA TYPHIMURIUM, Strain/Indicator: TA1537, Metabolic Activation: HAMSTER, LIVER, S-9, AROCLOR 1254 (10%), Method: PREINCUBATION): inactive; negative
- mutagenic call (Test System: AMES SALMONELLA TYPHIMURIUM, Strain/Indicator: TA1537, Metabolic Activation: HAMSTER, LIVER, S-9, SODIUM PHENOBARBITAL AND 5,6-BENZOFLAVONE, Method: PREINCUBATION): inactive; negative
- mutagenic call (Test System: AMES SALMONELLA TYPHIMURIUM, Strain/Indicator: TA1537, Metabolic Activation: NONE, Method: PREINCUBATION): inactive; negative
- mutagenic call (Test System: AMES SALMONELLA TYPHIMURIUM, Strain/Indicator: TA1537, Metabolic Activation: NONE, Method: STANDARD PLATE): inactive; negative
- mutagenic call (Test System: AMES SALMONELLA TYPHIMURIUM, Strain/Indicator: TA1537, Metabolic Activation: RAT, LIVER, S-9, AROCLOR 1254 (10%), Method: PREINCUBATION): inactive; negative
- mutagenic call (Test System: AMES SALMONELLA TYPHIMURIUM, Strain/Indicator: TA1537, Metabolic Activation: RAT, LIVER, S-9, AROCLOR 1254, Method: STANDARD PLATE): inactive; negative
- mutagenic call (Test System: AMES SALMONELLA TYPHIMURIUM, Strain/Indicator: TA1538, Metabolic Activation: NONE, Method: STANDARD PLATE): inactive; negative
- mutagenic call (Test System: AMES SALMONELLA TYPHIMURIUM, Strain/Indicator: TA1538, Metabolic Activation: RAT, LIVER, S-9, AROCLOR 1254, Method: STANDARD PLATE): inactive; negative
- mutagenic call (Test System: CHINESE HAMSTER OVARY, Strain/Indicator: CHO/6-THIOGUANINE, Metabolic Activation: HAMSTER EMBRYO CELL-MEDIATED): inactive; negative
- mutagenic call (Test System: CHINESE HAMSTER OVARY, Strain/Indicator: CHO/6-THIOGUANINE, Metabolic Activation: NONE): inactive; negative
- mutagenic call (Test System: CHINESE HAMSTER OVARY, Strain/Indicator: CHO/OUABAIN, Metabolic Activation: NONE): inactive; negative
- mutagenic call (Test System: CHINESE HAMSTER V-79, Strain/Indicator: V-79 (HGPRT)/6-THIOGUANINE, Metabolic Activation: NONE): inactive; negative
- mutagenic call (Test System: CHINESE HAMSTER V-79, Strain/Indicator: V-79 (HGPRT)/6-THIOGUANINE, Metabolic Activation: RAT, LIVER, S-9, PHENOBARBITAL AND BETA-NAPHTHOFLAVONE): inactive; negative
- mutagenic call (Test System: CHINESE HAMSTER V-79, Strain/Indicator: V-79/6-THIOGUANINE, Metabolic Activation: NONE, Method: REPLATING): active; positive
- mutagenic call (Test System: CHINESE HAMSTER V-79, Strain/Indicator: V-79/6-THIOGUANINE, Metabolic Activation: RAT, LIVER, S-9, PHENOBARBITAL AND 5,6-BENZOFLAVONE, Method: REPLATING): inactive; negative
- mutagenic call (Test System: CHINESE HAMSTER V-79, Strain/Indicator: V-79/OUABAIN, Metabolic Activation: NONE): inactive; negative
- mutagenic call (Test System: CHINESE HAMSTER V-79, Strain/Indicator: V-79/OUABAIN, Metabolic Activation: RAT, LIVER, S-15, PHENOBARBITAL AND 5,6-BENZOFLAVONE): inactive; negative
- mutagenic call (Test System: E. COLI, Strain/Indicator: WP2UVRA/PKM101, Metabolic Activation: HAMSTER, LIVER, S-9, SODIUM PHENOBARBITAL AND 5,6-BENZOFLAVONE, Method: PREINCUBATION): inactive; negative
- mutagenic call (Test System: E. COLI, Strain/Indicator: WP2UVRA/PKM101, Metabolic Activation: NONE, Method: PREINCUBATION): inactive; negative
- mutagenic call (Test System: E. COLI, Strain/Indicator: WP2UVRA, Metabolic Activation: HAMSTER, LIVER, S-9, SODIUM PHENOBARBITAL AND 5,6-BENZOFLAVONE, Method: PREINCUBATION): inactive; negative
- mutagenic call (Test System: E. COLI, Strain/Indicator: WP2 UVRA, Metabolic Activation: NONE, Method: PREINCUBATION): inactive; negative
- mutagenic call (Test System: E. COLI, Strain/Indicator: WP2UVRA, Metabolic Activation: NONE, Method: PREINCUBATION): inactive; negative
- mutagenic call (Test System: E. COLI, Strain/Indicator: WP2 UVRA, Metabolic Activation: RAT, LIVER, S-9, PHENOBARBITAL AND 5,6-BENZOFLAVONE, Method: PREINCUBATION): inactive; negative
- mutagenic call (Test System: MOUSE LYMPHOMA, Strain/Indicator: L5178Y (TK+/+)/OUABAIN, Metabolic Activation: NONE, Method: SUSPENSION/PLATE): inactive; negative
- mutagenic call (Test System: MOUSE LYMPHOMA, Strain/Indicator: L5178Y (TK+/+)/OUABAIN, Metabolic Activation: RAT LIVER S-9, AROCLOR 1254, Method: SUSPENSION/PLATE): inactive; negative
- mutagenic call (Test System: MOUSE LYMPHOMA, Strain/Indicator: L5178Y (TK+/-)/TRIFLUROTHYMIDINE, Metabolic Activation: NONE, Method: SUSPENSION/PLATE): inactive; negative
- mutagenic call (Test System: MOUSE LYMPHOMA, Strain/Indicator: L5178Y (TK+/-)/TRIFLUROTHYMIDINE, Metabolic Activation: RAT LIVER S-9, AROCLOR 1254, Method: SUSPENSION/PLATE): inactive; negative
- mutagenic call (Test System: MOUSE LYMPHOMA, Strain/Indicator: L5178Y (TK+/TK-), Metabolic Activation: NONE, Method: SUSPENSION/PLATE): inactive; negative
- mutagenic call (Test System: MOUSE LYMPHOMA, Strain/Indicator: L5178Y (TK+/TK-), Metabolic Activation: RAT, LIVER, S-9, Method: SUSPENSION/PLATE): inactive; negative
- mutagenic call (Test System: UDS RAT HEPATOCYTES, Strain/Indicator: THY INCORP, Metabolic Activation: NONE, Method: LIQUID SCINTILLATION COUNTING): active; positive
